Measurements taken from US3939143A, “1-N-isoserylkanamycins and the production thereof” (Zaidan Hojin Biseibutsu Kagaku Kenkyu Kai, priority 1973, dated 1976).

Tests used:
[1] = tested on: gram-negative and gram-positive bacteria; assay: antibacterial activity, in words; format: cell-based; conditions: gram-negative and gram-positive bacteria sensitive to kanamycins
Protocol: (§1) The minimum inhibitory concentrations (mcg/ml) of 1-N-DL-isoserylkanamycin,1-N-DL-isoserylkanamycin B and 1-N-DL-isoseryl-3',4'-dideoxykanamycin B against various microorganisms were determined according to the serial dilution method using nutrient agar medium at 37°C, the estimation being effected after 18 hours incubation. For comparison purposes, the minimum inhibitory concentrations of kanamycin, kanamycin B and 3',4'-dideoxykanamycin B were also determined in the same manner and under the same conditions as mentioned above.
(§2) The antibacterial spectra of 1-N-DL-isoseryl-kanamycin (abbreviated as 1-IS-KM), 1-N-DL-isoseryl-kanamycin B (abbreviated as 1-IS-KMB) and 1-N-DL-isoseryl-3',4'-dideoxykanamycin B (abbreviated as 1-IS-DKB) are shown in the following table together with those of kanamycin (abbreviatedas KM), kanamycin B (abbreviated as KMB) and 3',4'-dideoxykanamycin B (abbreviated as DKB).

[2] = tested on: Staphylococcus aureus FDA 209P; assay: Minimum inhibitory concentration, serial dilution on nutrient agar; format: cell-based; conditions: FDA209P, 37°C, 18 hours, read-out: Minimum Inhibitory Concentration
[3] = tested on: Escherichia coli W677; assay: as above; format: cell-based; conditions: W677, 37°C, 18 hours, read-out: Minimum Inhibitory Concentration
[4] = tested on: Pseudomonas aeruginosa No.12; assay: as above; format: cell-based; conditions: NO.12, 37°C, 18 hours, read-out: Minimum Inhibitory Concentration
[5] = tested on: Salmonella enteritidis 1891; assay: as above; format: cell-based; conditions: Salmonella enterica, 37°C, 18 hours, read-out: Minimum Inhibitory Concentration
[6] = tested on: Escherichia coli LA290 R55; assay: as above; format: cell-based; conditions: LA290R55, 18 h, read-out: Minimum Inhibitory Concentration
[7] = tested on: Klebsiella pneumoniae PCI 602; assay: as above; format: cell-based; conditions: PCI602, 37°C, 18 hours, read-out: Minimum Inhibitory Concentration
[8] = acute toxicity upon intravenous injection in mice; format: in vivo; conditions: mouse, in vivo; intravenous injection, mice
[9] = tested on: Staphylococcus aureus Smith; assay: Minimum inhibitory concentration, serial dilution on nutrient agar; format: cell-based; conditions: 37°C, 18 hours, read-out: Minimum Inhibitory Concentration
[10] = tested on: Shigella dysenteriae JS 11910; assay: as above; format: cell-based; conditions: JS11910, 18 h, read-out: Minimum Inhibitory Concentration
[11] = tested on: Escherichia coli K-12 ML 1629; assay: as above; format: cell-based; conditions: K12ML1629, 37°C, 18 hours, read-out: Minimum Inhibitory Concentration
[12] = tested on: Klebsiella pneumoniae 22 No. 3038; assay: as above; format: cell-based; conditions: 22NO.3038, 37°C, 18 hours, read-out: Minimum Inhibitory Concentration
[13] = tested on: Escherichia coli LA290 R64; assay: as above; format: cell-based; conditions: LA290R64, 18 h, read-out: Minimum Inhibitory Concentration
[14] = tested on: Escherichia coli K-12; assay: as above; format: cell-based; conditions: K12, 37°C, 18 hours, read-out: Minimum Inhibitory Concentration
[15] = tested on: Escherichia coli JR66/W677; assay: as above; format: cell-based; conditions: JR66/W677, 18 h, read-out: Minimum Inhibitory Concentration
[16] = tested on: Bacillus anthracis; assay: microbe, parasite or virus in culture; format: cell-based; conditions: 18 h, read-out: Minimum Inhibitory Concentration
[17] = tested on: Bacillus cereus ATCC 10702; assay: Minimum inhibitory concentration, serial dilution on nutrient agar; format: cell-based; conditions: ATCC10702, 37°C, 18 hours, read-out: Minimum Inhibitory Concentration
[18] = tested on: Escherichia coli LA290 R56; assay: as above; format: cell-based; conditions: LA290R56, 18 h, read-out: Minimum Inhibitory Concentration
[19] = tested on: Corynebacterium bovis 1810; assay: as above; format: cell-based; conditions: Corynebacterium bovis, 1810; 37°C, 18 hours; read-out: Minimum Inhibitory Concentration
[20] = tested on: Escherichia coli NIHJ; assay: as above; format: cell-based; conditions: 37°C, 18 hours, read-out: Minimum Inhibitory Concentration
[21] = tested on: Staphylococcus aureus Terajima; assay: as above; format: cell-based; conditions: 37°C, 18 hours, read-out: Minimum Inhibitory Concentration
[22] = tested on: Sarcina lutea PCI 1001; assay: as above; format: cell-based; conditions: Micrococcus luteus, PCI1001; 37°C, 18 hours; read-out: Minimum Inhibitory Concentration
[23] = tested on: Pseudomonas aeruginosa GN315; assay: as above; format: cell-based; conditions: GN315, 37°C, 18 hours, read-out: Minimum Inhibitory Concentration
[24] = tested on: Pseudomonas aeruginosa 99; assay: as above; format: cell-based; conditions: Pseudomonas aeruginosa, 99, 18 h, read-out: Minimum Inhibitory Concentration
[25] = tested on: Escherichia coli K-12 ML 1410; assay: as above; format: cell-based; conditions: K12ML1410, 37°C, 18 hours, read-out: Minimum Inhibitory Concentration
[26] = tested on: Salmonella typhosa T-63; assay: as above; format: cell-based; conditions: Salmonella enterica, 18 h, read-out: Minimum Inhibitory Concentration
[27] = tested on: Bacillus subtilis PCI 219; assay: as above; format: cell-based; conditions: PCI219, 37°C, 18 hours, read-out: Minimum Inhibitory Concentration
[28] = tested on: Escherichia coli K-12 ML 1630; assay: as above; format: cell-based; conditions: K12ML1630, 37°C, 18 hours
Protocol: as §1, §2

[29] = tested on: Shigella sonnei JS 11746; assay: as above; format: cell-based; conditions: JS11746, 37°C, 18 hours
Protocol: as §1, §2

[30] = tested on: Pseudomonas aeruginosa TI-13; assay: as above; format: cell-based; conditions: TI13, 37°C, 18 hours
Protocol: as §1, §2

[31] = tested on: Shigella flexneri 4b JS 11811; assay: as above; format: cell-based; conditions: 4BJS11811, 37°C, 18 hours
Protocol: as §1, §2

[32] = tested on: Pseudomonas aeruginosa A3; assay: as above; format: cell-based; conditions: 37°C, 18 hours
Protocol: as §1, §2

[33] = tested on: drug-resistant strains of Escherichia coli and Pseudomonas aeruginosa; assay: antibacterial activity against drug-resistant strains, in words; format: cell-based
[34] = tested on: Mycobacterium smegmatis ATCC 607; assay: Minimum inhibitory concentration, serial dilution on nutrient agar; format: cell-based; conditions: Mycolicibacterium smegmatis, ATCC607; 37°C, 18 hours; read-out: Minimum Inhibitory Concentration
[35] = tested on: Bacillus subtilis NRRL B-558; assay: as above; format: cell-based; conditions: NRRLB558, 37°C, 18 hours, read-out: Minimum Inhibitory Concentration
[36] = tested on: Proteus vulgaris OX 19; assay: as above; format: cell-based; conditions: OX19, 37°C, 18 hours, read-out: Minimum Inhibitory Concentration

With `NCC(O)C(=O)N[C@@H]1C[C@H](N)[C@@H](O[C@H]2O[C@H](CN)CC[C@H]2N)[C@H](O)[C@H]1O[C@H]1O[C@H](CO)[C@@H](O)[C@H](N)[C@H]1O` (mixture of isomers) [1-IS-DKB, 1-N-DL-isoseryl-3',4'-dideoxykanamycin B] the antibacterial activity [1] was “high antibacterial activity”, the MIC [2] was 0.78 µg/mL and the MIC [3] was 0.78 µg/mL. The MIC [4] was 1.56 µg/mL, the MIC [5] was 0.39 µg/mL and the MIC [6] was 1.56 µg/mL. The MIC [7] was 0.39 µg/mL, the LD50 [8] was > 100 mg/kg and the MIC [9] was < 0.2 µg/mL. It also gave an MIC [10] of 3.13 µg/mL, an MIC [11] of 1.56 µg/mL and an MIC [12] of 1.56 µg/mL. It also gave an MIC [13] of 0.39 µg/mL, an MIC [14] of 1.56 µg/mL and an MIC [15] of 3.13 µg/mL. The MIC [16] was < 0.2 µg/mL, the MIC [17] was 1.56 µg/mL and the MIC [18] was 0.39 µg/mL. The MIC [19] was 0.78 µg/mL, the MIC [20] was 1.56 µg/mL and the MIC [21] was < 0.2 µg/mL. It also gave an MIC [22] of 1.56 µg/mL, an MIC [23] of 12.5 µg/mL and an MIC [24] of 3.13 µg/mL. The MIC [25] was 1.56 µg/mL, the MIC [26] was 0.78 µg/mL and the MIC [27] was < 0.2 µg/mL. The MIC [28] was 1.56 µg/mL, the MIC [29] was 3.13 µg/mL and the MIC [30] was 3.13 µg/mL. For the same compound, the MIC [31] was 3.13 µg/mL, the MIC [32] was 3.13 µg/mL and the antibacterial activity [33] was “high antibacterial activity”. For the same compound, the MIC [34] was < 0.2 µg/mL, the MIC [35] was < 0.2 µg/mL and the MIC [36] was 0.2 µg/mL.
